Assay [1] concerns the target T1, Adrenergic receptor alpha-2 (Rattus norvegicus, UniProt P22086+P19328+P22909).
T1 sequence (P22086 whole entry): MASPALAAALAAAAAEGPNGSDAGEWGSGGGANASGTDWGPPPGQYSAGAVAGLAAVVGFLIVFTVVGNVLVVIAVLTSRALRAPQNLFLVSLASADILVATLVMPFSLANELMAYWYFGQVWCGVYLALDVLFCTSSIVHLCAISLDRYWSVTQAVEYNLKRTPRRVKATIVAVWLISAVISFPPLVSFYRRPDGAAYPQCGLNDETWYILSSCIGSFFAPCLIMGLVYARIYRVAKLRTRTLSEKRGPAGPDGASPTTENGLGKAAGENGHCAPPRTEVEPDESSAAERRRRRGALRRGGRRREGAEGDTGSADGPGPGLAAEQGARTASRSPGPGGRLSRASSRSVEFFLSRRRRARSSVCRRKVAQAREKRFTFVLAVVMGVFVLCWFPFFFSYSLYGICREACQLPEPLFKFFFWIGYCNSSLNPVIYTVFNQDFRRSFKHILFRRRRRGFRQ
T1 sequence (P19328 whole entry): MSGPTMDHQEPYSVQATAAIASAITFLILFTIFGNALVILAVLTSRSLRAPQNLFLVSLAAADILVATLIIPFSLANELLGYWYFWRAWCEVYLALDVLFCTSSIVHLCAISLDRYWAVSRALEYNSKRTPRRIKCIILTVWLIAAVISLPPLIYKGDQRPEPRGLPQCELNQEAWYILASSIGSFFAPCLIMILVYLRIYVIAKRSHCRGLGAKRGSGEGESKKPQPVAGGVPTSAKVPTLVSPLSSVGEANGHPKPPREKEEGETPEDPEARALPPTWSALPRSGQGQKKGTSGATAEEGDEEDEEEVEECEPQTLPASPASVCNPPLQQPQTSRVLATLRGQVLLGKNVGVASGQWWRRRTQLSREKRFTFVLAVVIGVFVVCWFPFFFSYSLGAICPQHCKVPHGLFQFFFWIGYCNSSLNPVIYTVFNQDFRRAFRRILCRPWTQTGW
T1 sequence (P22909 whole entry): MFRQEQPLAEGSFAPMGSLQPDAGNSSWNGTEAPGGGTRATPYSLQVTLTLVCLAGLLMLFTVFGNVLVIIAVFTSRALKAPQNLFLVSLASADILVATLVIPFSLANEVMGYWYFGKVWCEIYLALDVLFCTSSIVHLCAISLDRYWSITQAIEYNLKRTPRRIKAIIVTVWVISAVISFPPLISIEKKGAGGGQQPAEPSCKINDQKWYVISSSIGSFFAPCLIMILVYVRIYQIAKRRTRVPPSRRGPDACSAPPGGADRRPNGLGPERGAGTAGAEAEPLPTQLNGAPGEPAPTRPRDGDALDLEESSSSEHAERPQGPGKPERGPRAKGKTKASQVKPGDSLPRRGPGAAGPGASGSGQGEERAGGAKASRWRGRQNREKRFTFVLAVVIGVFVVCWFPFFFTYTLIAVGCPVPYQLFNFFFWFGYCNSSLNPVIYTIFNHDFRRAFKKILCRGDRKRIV
The assay can be described thus: Alpha-2-adrenolytic activity was assessed from the ability to inhibit [3H]yohimbine binding to rat cerebral cortex preparation. In kind it is tissue-based.

Assay [2] addresses T2, Adrenergic receptor alpha-1 (Rattus norvegicus, UniProt P15823+P23944+P43140).
T2 sequence (P15823 whole entry): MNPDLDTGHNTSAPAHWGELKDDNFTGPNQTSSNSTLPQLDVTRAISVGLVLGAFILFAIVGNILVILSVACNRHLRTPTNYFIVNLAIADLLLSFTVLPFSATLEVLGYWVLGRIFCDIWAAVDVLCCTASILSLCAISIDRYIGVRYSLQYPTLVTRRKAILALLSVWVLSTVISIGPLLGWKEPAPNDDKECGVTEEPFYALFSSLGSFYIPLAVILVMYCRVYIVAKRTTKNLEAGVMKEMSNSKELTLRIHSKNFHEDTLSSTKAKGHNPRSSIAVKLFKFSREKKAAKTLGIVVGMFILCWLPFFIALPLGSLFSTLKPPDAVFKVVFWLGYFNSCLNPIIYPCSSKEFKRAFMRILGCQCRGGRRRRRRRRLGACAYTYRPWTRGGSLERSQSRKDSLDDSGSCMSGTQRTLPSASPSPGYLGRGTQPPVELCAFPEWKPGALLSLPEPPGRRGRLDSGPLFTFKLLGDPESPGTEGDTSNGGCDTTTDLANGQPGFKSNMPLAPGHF
T2 sequence (P23944 whole entry): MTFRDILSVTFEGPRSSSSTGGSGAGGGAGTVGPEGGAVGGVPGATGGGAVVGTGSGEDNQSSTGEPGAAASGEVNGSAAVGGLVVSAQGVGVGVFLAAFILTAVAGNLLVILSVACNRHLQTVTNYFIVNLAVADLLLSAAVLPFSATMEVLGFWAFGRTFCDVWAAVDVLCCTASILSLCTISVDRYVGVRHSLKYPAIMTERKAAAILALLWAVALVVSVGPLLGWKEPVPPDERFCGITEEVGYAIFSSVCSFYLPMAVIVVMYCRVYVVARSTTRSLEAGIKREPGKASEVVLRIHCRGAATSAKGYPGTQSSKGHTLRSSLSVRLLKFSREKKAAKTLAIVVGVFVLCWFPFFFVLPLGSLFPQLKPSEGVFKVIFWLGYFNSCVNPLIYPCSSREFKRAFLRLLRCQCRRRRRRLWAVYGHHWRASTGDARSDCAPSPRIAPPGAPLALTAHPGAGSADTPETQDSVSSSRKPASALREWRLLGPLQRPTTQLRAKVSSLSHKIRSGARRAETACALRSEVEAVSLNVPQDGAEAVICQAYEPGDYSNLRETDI
T2 sequence (P43140 whole entry): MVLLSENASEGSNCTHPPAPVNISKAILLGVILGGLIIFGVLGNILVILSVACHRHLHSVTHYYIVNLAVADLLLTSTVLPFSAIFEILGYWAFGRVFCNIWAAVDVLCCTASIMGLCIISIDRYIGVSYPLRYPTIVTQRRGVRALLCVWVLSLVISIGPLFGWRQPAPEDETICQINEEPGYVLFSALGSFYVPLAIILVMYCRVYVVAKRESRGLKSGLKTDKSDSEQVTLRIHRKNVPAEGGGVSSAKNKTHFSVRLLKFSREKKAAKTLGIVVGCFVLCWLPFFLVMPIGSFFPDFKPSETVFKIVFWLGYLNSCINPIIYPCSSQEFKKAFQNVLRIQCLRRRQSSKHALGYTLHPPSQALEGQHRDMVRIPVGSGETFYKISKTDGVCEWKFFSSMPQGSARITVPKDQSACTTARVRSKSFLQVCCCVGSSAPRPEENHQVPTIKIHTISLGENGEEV
The assay can be described thus: Alpha-1-adrenolytic activity was assessed from the ability to inhibit [3H]prazosin binding to rat cerebral cortex preparation. It counts as tissue-based.

The species named for a further assay is Sus scrofa. The assay can be described thus: Calcium antagonistic activity was evaluated from the inhibition of CaCl2-induced contraction of depolarized pig coronary artery. In kind it is functional. The following applies: Sus scrofa, Coronary artery.
The species named for another assay is Rattus norvegicus. The assay can be described thus: Calcium antagonistic activity was evaluated by in vitro inhibition of [3H]nitrendipine binding on rat cerebral cortex. In kind it is functional.
In assay [3] the target is T2, Adrenergic receptor alpha-1. The assay can be described thus: Alpha-1-adrenolytic activity was assessed in vitro from the ability to inhibit norepinephrine-induced contraction of rat aorta preparation.

`CO/C(O)=C1\C(C)=NC(C)=C(C(=O)OCCN(C)C[C@@H]2COc3ccccc3O2)[C@H]1c1cccc([N+](=O)[O-])c1.Cl`: the IC50 in assay [1] was 19000 nM; in assay [2], 2000 nM; in the assay listed under Sus scrofa, 2.5 nM; in the assay filed under Rattus norvegicus it was 1 nM; in assay [3], >> 0.00001 M.
On the same counts, the results for `CC1=NC(C)=C(C(=O)OCCN(C)CC2COc3ccccc3O2)C(c2cccc([N+](=O)[O-])c2)/C1=C(\O)OC(C)C.Cl` (centres undefined) are 830 nM, 3500 nM, 4 nM, 0.06 nM and >> 0.00003 M.
`COC(=O)C1=C(C)NC(C)=C(C(=O)OCCN(C)C[C@H]2COc3ccccc3O2)[C@@H]1c1cccc([N+](=O)[O-])c1.Cl` (racemic): the results for the IC50 in assay [1], in assay [2] and in assay [3] were 210 nM, 1900 nM and 0.00003 M, respectively.
With `COC(=O)C1=C(C)NC(C)=C(C(=O)OCCN(C)Cc2ccccc2)C1c1cccc([N+](=O)[O-])c1` (centres undefined) [NICARDIPINE], the IC50 in assay [1] was 1400 nM; in assay [2] it was 3600 nM; in the assay filed under Sus scrofa, 0.3 nM; in the assay listed under Rattus norvegicus, 0.026 nM; in assay [3] it was > 0.00001 M.
Consider `COc1cc2nc(N3CCN(C(=O)c4ccco4)CC3)nc(N)c2cc1OC` [PRAZOSIN], for which the IC50 in the assay listed under Rattus norvegicus was 3000 nM.
